According to patent US11130960B2, “Methods for conferring or enhancing herbicide resistance on plants and/or alga with protoporphyrinogen oxidase variants” (FARM HANNONG CO., LTD., priority 2014, dated 2021):

Each compound was assayed on CyPPO8 (assay: Growth inhibition of transformed PPO-deficient E. coli BT3(ΔPPO) on LB agar medium). Details: 37° C., 16~20 hours.
Type: cell-based, Halothece sp. PCC 7418
Description: To test herbicide resistance of CyPPO2, CyPPO4, CyPPO8 and CyPPO12 isolated in Example 1, PPO-deficient BT3 E. coli [hereinafter, referred to as BT3(ΔPPO)] was transformed with CyPPO2, CyPPO4, CyPPO8 or CyPPO12 gene, respectively and then cultured in the presence of herbicides to examine growth inhibition of the transformed E. coli. As a negative control, Arabidopsis thaliana-derived wild-type PPO (wild-type AtPPO1) was used, and wild-type AtPPO1 has sensitivity to PPO-based herbicides and its sequence information is available in GeneBank accession no. AX084732 (a nucleotide sequence of the gene is represented by SEQ ID NO: 10, and an amino acid sequence thereof is represented by SEQ ID NO: 9). As a positive control, Mutant AtPPO1 was used, in which amino acid replacements of Y426M (replacement of tyrosine by methionine at position 426) and S305L (replacement of serine by leucine at position 305) occur in the amino acid sequence of the wild-type AtPPO1 (an amino acid sequence is represented by SEQ ID NO: 11) (Li X, Volrath S L., N D B. G., Chilcott C E, Johnson M A, Ward E R, Law M D (2003) Development of protoporphyrinogen oxidase as an efficient selection marker for Agrobacterium tumefaciens-mediated transformation of maize. Plant physiology 133:736-747).
BT3(ΔPPO) strain was provided by Hokkaido University (Japan) and it is an E. coli strain which is deficient in hemG-type PPO and has Kanamycin resistance (Watanabe et al., (2001) Dual targeting of spinach protoporphyrinogen oxidase II to mitochondria and chloroplasts by alternative use of two in-frame […] codons. JBC 2047420481).
HVE-50 autoclave from Hirayama, HS2100A electronic scale from Hansung Instrument, CB-30V clean bench from Jeio Tech, JSI-200CL incubator from JSR, 1210 type UV-visible spectrophotometer from Thermo Fisher Scientific, MQ-200 photometer from Apogee, and Bio-Rad MyCycler as PCR machine were used. The autoclave was used under conditions of 121° C. and 15 minutes, and the incubator was used at 37° C. with lighting of 160˜200 μmol m^−2 s^−1 for a culture time of 14˜20 hours. LB medium (10 g/L of Bacto-Tryptone, 5 g/L of Yeast extract, 10 g/L of sodium chloride, 15 g/L of Bacto agar) and an antibiotic Chloramphenicol (Duchefa) were used.
To clone each of the CyPPO2, CyPPO4, CyPPO8 and CyPPO12 genes isolated and amplified in Example 1 into pACBB (its structure is shown in FIG. 2), 10 μl of a solution containing 4 μl of each PPO gene, […], 1 μl of 10× buffer A, 1 μl of 10× buffer B, 1 μl of ligase (RBC, 3 unit/μl) was prepared and allowed to react at 22° C. for 30 minutes. The reaction solution was added to 100 μl of DH5 alpha competent cells, and allowed to react on ice for 20 minutes and then left at 42° C. for 40 seconds. Thereafter, the cells were left on ice for 2 minutes, and then 1 ml of LB broth was added thereto, followed by incubation with shaking at 37° C. for 1 hour. The strains having each gene insert in the culture medium were harvested, and then cultured on LB agar medium containing chloramphenicol.
For seed culture of E. coli transformed with respective genes, single colonies thereof were cultured in 3 ml of LB broth containing chloramphenicol overnight, and each 100 μl thereof was sub-cultured in 3 ml of fresh LB broth until absorbance (OD600) reached 0.5˜1. They were diluted with LB broth to absorbance (OD600) of 0.5. 10-fold dilution of this diluted solution was performed with LB broth five times. Next, 10 μl of the diluted solution of the transformed E. coli culture was dropped on LB agar medium (petri dish) containing chloramphenicol and a variety of herbicide stocks at different concentrations (0˜400 μM). The LB agar plates were incubated at 37° C. At 16˜20 hours after culture, growth inhibition was examined with the naked eye. Further, growth inhibition of the strains cultured in a medium containing Tiafenacil was examined under light (lighting of 169 μmol m^−2s^−1) and dark conditions.

SMILES | concentration at which growth inhibition was hardly observed
CS(=O)(=O)NC(=O)c1cc(Oc2ccc(C(F)(F)F)cc2Cl)ccc1[N+](=O)[O-] [Fomesafen] | 400 µM
COC(=O)CSc1cc(/N=c2\sc(=O)n3n2CCCC3)c(F)cc1Cl [Fluthiacet-methyl] | 400 µM
Cc1nn(-c2cc(NS(C)(=O)=O)c(Cl)cc2Cl)c(=O)n1C(F)F [Sulfentrazone] | 400 µM
CCOc1cc(Oc2ccc(C(F)(F)F)cc2Cl)ccc1[N+](=O)[O-] [Oxyfluorfen] | 400 µM
CC(C)N(C)S(=O)(=O)NC(=O)c1cc(-n2c(=O)cc(C(F)(F)F)n(C)c2=O)c(F)cc1Cl [Saflufenacil] | 25 µM
CC(C)=C1OC(=O)N(c2cc(OC3CCCC3)c(Cl)cc2F)C1=O [Pentoxazone] | 400 µM
C#CCN(C)c1c(C#N)cnn1-c1nn2c(c1Cl)CCCC2 [Pyraclonil] | 400 µM
C=CCOC(=O)C(C)(C)OC(=O)c1cc(-n2c(=O)cc(C(F)(F)F)n(C)c2=O)ccc1Cl [Butafenacil] | 25 µM
COC(=O)CCNC(=O)C(C)Sc1cc(-n2c(=O)cc(C(F)(F)F)n(C)c2=O)c(F)cc1Cl (stereo not shown) [Tiafenacil] | 25 µM
C#CCN1C(=O)COc2cc(F)c(N3C(=O)C4=C(CCCC4)C3=O)cc21 [Flumioxazin] | 25 µM
CCOC(=O)COc1cc(-c2nn(C)c(OC(F)F)c2Cl)c(F)cc1Cl [Pyraflufen-ethyl] | 400 µM
O=C(O)c1cc(Oc2ccc(C(F)(F)F)cc2Cl)ccc1[N+](=O)[O-] [Acifluorfen] | 400 µM
CC(C)Oc1cc(-n2nc(C(C)(C)C)oc2=O)c(Cl)cc1Cl [Oxadiazon] | 400 µM
